The values below come from patent US6627218B2, “Cationic amphiphiles of cholesterol” (The University of Tennessee Research Foundation, priority 1991, dated 2003).

Where a name gives a salt, the structure may show the parent alone. Bounds are passed on as bounds.

The subject of data set [1] is mouse L929 cells. The data set can be described thus: Transfection of L929 cells with pUCSV2CAT, CAT activity. In kind it is cell-based. On the set-up: Relative CAT Activity: scale not given here. To be noted: for Relative CAT Activity: dispersion with co-lipid DOPE, plasmid pUCSV2CAT, L929 cells. On the procedure: (§1) The cationic cholesterol derivatives of the invention were mixed with a phospholipid co-lipid in chloroform solution at different molar ratios. The solvent was removed by evaporation under a stream of N2 gas and desiccated in vacuo for at least 30 minutes. The dry lipid film was hydrated in 20 mM Hepes buffer, pH 7.8, overnight. The suspension was sonicated in a bath-type sonicator (Laboratory Supplies, Hicksville, N.Y.) to generate small particle dispersions (average diameter=150 nm). The co-lipid is phosphatidylethanolamine.
Plasmid pUCSV2CAT (approximately 5kb in size) containing the structural gene of E. coli chloramphenicol acetyl transferase (CAT) driven by the SV40 virus early promoter was used as a model for the polyanions to be delivered by the cationic lipid dispersions. DNA was mixed with the cationic lipid dispersions of the invention in 1 ml serum-free M199 medium or McCoy's medium to form DNA/lipid complex. Cultured mammalian cells of about 80-100% confluency in a 6-well plate were washed once with serum-free medium. The DNA/lipid complex was added to the washed cells which were incubated at 37° C. for 5 hours. The cells were washed again and the serum-containing medium was added. Cells were harvested 30-72 hours later and extracted for cellular proteins. The CAT activity in the extracted protein was measured by using either [^14C] chloramphenicol or [^3H] acetyl CoA as a radiolabeled substrate. One activity unit of CAT is defined as nmole of radiolabeled substrate converted to the radiolabeled product in one minute. Protein content in the cell extracts was measured by the Bradford (BIORAD) assay.
Plasmid DNA, pUCSV2CAT, was used as a model compound for polyanions because it contains a structural gene for CAT. The efficiency of intracellular delivery can be readily assayed by the expression of CAT activity in the extracted proteins of the treated cells. Table 1 lists the CAT activity of mouse L929 cells which have been transfected with this plasmid DNA as mediated by various cationic lipid dispersions. In addition, the inhibitory activity of the pure cationic cholesterol derivatives on diolefin, phosphatidyl serine (PS), and Ca^2+stimulated protein kinase C was also measured. This activity was expressed as an IC50 which is the concentration at which 50% of PKC activity was inhibited.

A further data set has as its target protein kinase C (PKC). The data set can be described thus: Mixed micelle assay of protein kinase C. To be noted: pure cationic cholesterol derivative; diolefin, phosphatidyl serine and Ca2+ stimulated PKC; read-out: PKC Inhibition IC50. Type of data set: biochemical, rat. On the procedure: As rapidly as possible, brains for 25 Sprague-Dawley rats (150-200 g) were removed, washed with 100 ml of 20 mM TRIS, 1 mM EDTA, 1 mM EGTA, pH 7.5, and homogenized in 150 ml of ice cold 20 mM TRIS, 10 mM EGTA, 2 mM EDTA, 10 mM DTT, 0.25 M sucrose, 2 mM PMSF and 100 μg/ml leupeptin, pH 7.5. The homogenate was immediately centrifuged at 100,000 g for 40 minutes at 4° C. in a Beckman Ti 50.2 rotor. The supernatant was applied to a 2.5×20 cm column of DEAE Sepharose (fast flow) containing 60 of resin equilibrated with 20 mM TRIS, 1 mM EDTA, 1 mM DTT, pH 7.5 (buffer A). The column was washed with 300 ml of buffer A and an additional 200 ml of buffer A containing 0.03 M KCl. Protein kinase C was eluted with a 500 ml continuous KCl gradient (0.03-0.3 M KCl). Fractions of 5 ml volumes were collected. Fractions showing calcium and phospholipid dependence were pooled; the salt concentration was adjusted to 1.5 KCl with the appropriate quantity of solid KCl. The crude sample containing 1.5 M KCl was stirred for 15 minutes and subsequently loaded onto a 1×10 cm column containing 9 ml Phenyl sepharose equilibrated with 1.5 M KCl in 20 mM TRIS, 0.5 mM EGTA, 1 mM DTT, pH 7.5 (buffer B). The column was washed with 90 ml of buffer B containing 1.5 M KCl. PKC was eluted with a 100 ml continuous KCl gradient (1.5-0 M KCl). Fractions of 3 ml volumes were collected. The column was washed with an additional 50 ml of buffer B. Most of the enzyme activity eluted during this stage. Fractions showing calcium and phospholipid dependence were pooled and concentrated to 4 ml using an Amicon ultrafiltration cell fitted with a YM-10 filter. The concentrated sample was loaded onto a 2.5×100 cm column containing 400 ml of Sephacryl S-200 HR beads equilibrated with buffer B containing 10% glycerol (buffer C). Fractions of 3 ml volumes were collected. About 150 ml of buffer was run through; PKC eluted very close to the column void volume. The fractions showing calcium and phospholipid dependence were pooled and loaded onto a 0.5×5 cm column containing 2.5 ml polylysine agarose equilibrated with buffer C. PKC was eluted with a 40 ml continuous KCl gradient (0-0.8 M KCl). Fractions of 1 ml volumes were collected. The first few active fractions were contaminated. The uncontaminated fractions were pooled, concentrated, and diluted with buffer C to remove the high salt content. After reconcentrating, the sample was divided into working portions, frozen in liquid nitrogen and stored at −80° C. Full activity was regained after rapid thawing. Trace impurities (116 k, 66 k, and 50 k Mr) could still be detected when the gel was silver stained heavily. The enzyme gave a specific activity of 200 nmoles phosphate incorporated per minute per milligram of protein when assayed for histone phosphorylation using the Triton mixed micelle assay with 6.5 mole % phosphatidylserine, 2.5 mole % DAG and 100 μM calcium present. Specific activities ranging from 30 nmoles/min/mg to 600 nmoles/min/mg have been observed for PKC using the Triton mixed micelle assay under the same conditions.
Phosphatidylserine and 1,2-diolefin with and without additive were dissolved in a solution of chloroform/methanol (2:1, v/v). Solvent was evaporated with a stream of nitrogen and last traces removed using a vacuum desiccator at 40° C. The lipid films were then solubilized by the addition of 3% Triton X-100, vortexed vigorously for 30 seconds and then incubated at 30° C. for 10 minutes to allow for equilibration. […]

Data set [2] relates to mouse L929 cells. In words: Transfection of L929 cells with pUCSV2CAT, CAT activity. Type of data set: cell-based. As to conditions: molar ratio 1:1, L929 cells (FIG. 4).
A short description of data set [3]: Formation of homogenous dispersion by sonication. In kind it is physicochemical. As to conditions: sonication in low ionic strength buffer. Here is the method:
as §1
None of the cationic cholesterol derivatives by themselves form stable homogenous dispersion by sonication in a low ionic strength buffer. When stable dispersions are desired, it was necessary to add an acidic or neutral phospholipid to form mixed lipid dispersion. […] In the case of compound XIV, a minimal ration of phosphatidyl choline (PC) or phosphatidyl ethanolamine (PE) to XIV=4:6 is required. Such non-cationic lipid used in the dispersion is called co-lipid.

What is called IC50 is the concentration that gives 50% inhibition. Usually melting point stands for the temperature, or range, at which the solid turns liquid.

Take “3β[N-(polyethyleneimine)-carbamoyl]cholesterol [XV]”: in the data set with mouse L929 cells [1], the “Relative CAT Activity” value is on record as 11.

As for `CC(C)CCCC(C)C1CCC2C3CC=C4CC(C(=O)OC(CN(C)C)C[N+](C)(C)C)CCC4(C)C3CCC12C` (racemic) [Compound VI, 1-Dimethylamino-3-Trimethylammonio-DL-2-Propyl Cholesteryl Carboxylate Iodide Salt], on protein kinase C (PKC), the 50% inhibitory concentration (IC50) is 11 µM.

Turning to `CC(C)CCCC(C)C1CCC2C3CC=C4CC(OC(=O)CCC(=O)OC(CN(C)C)C[N+](C)(C)C)CCC4(C)C3CCC12C` (racemic) [Compound XI, 1-Dimethylamino-3-Trimethylammonio-DL-2-Propyl-Cholesteryl-3β-Oxysuccinate Iodide Salt], at protein kinase C (PKC), the IC50 came to 15 µM.

The compound `CC(C)CCCC(C)C1CCC2C3CC=C4CC(C(=O)NCCN(C)C)CCC4(C)C3CCC12C` (stereo not drawn) [Compound III, Cholesteryl-3β-Carboxyamidoethylenedimethylamine] returned a melting point of 167 to 169 °C. In addition, the “Relative CAT Activity” value in the data set on mouse L929 cells [1] is 18. In addition, the IC50 on protein kinase C (PKC) was 258 µM.

Turning to `CC(C)CCCC(C)C1CCC2C3CC=C4CC(C(=O)OC(CN(C)C)CN(C)C)CCC4(C)C3CCC12C` (stereo not drawn) [Compound V, 1,3-Bis-Dimethylamino-2-Propyl-Cholesteryl-3β-Carboxylate], in the data set with mouse L929 cells [1], the “Relative CAT Activity” value turned out to be 2. The half-maximal inhibitory concentration (IC50) at protein kinase C (PKC) turned out to be 643 µM.

Turning to `CC(C)CCCC(C)C1CCC2C3CC=C4CC(C(=O)NCCN)CCC4(C)C3CCC12C` (stereo not drawn) [Compound VII, Cholesteryl-3β-Carboxyamidoethyleneamine], on protein kinase C (PKC), the IC50 is 246 µM.

As for `CC(C)CCCC(C)C1CCC2C3CC=C4CC(OC(=O)CCC(=O)OC(CN(C)C)CN(C)C)CCC4(C)C3CCC12C` (stereo not drawn) [Compound X, 1,3-Bi-Dimethylamino-2-Propyl-Cholesteryl-3β-Oxysuccinate], the “Relative CAT Activity” value with mouse L929 cells [1] worked out at 0.5. In addition, the IC50 at protein kinase C (PKC) stood at 408 µM.

`CC(C)CCCC(C)C1CCC2C3CC=C4CC(OC(=O)NCCN(C)C)CCC4(C)C3CCC12C` (stereo not drawn) [Compound XIV, 3β[N-(N′,N′-dimethylaminoethane)-carbamoyl]cholesterol]: the “Relative CAT Activity” value in the data set on mouse L929 cells [1] came out at 75. Moreover, the IC50 at protein kinase C (PKC) is above 1000 µM.

For `CC(C)CCCC(C)C1CCC2C3CC=C4CC(C(=O)NCC[N+](C)(C)C)CCC4(C)C3CCC12C` (stereo not drawn) [IV, Cholesteryl-3β-Carboxyamidoethylenetrimethylammonium Iodide], the half-inhibitory concentration (IC50) at protein kinase C (PKC) is 12 µM.

`CC(C)CCCC(C)C1CCC2C3CC=C4CC(OC(=O)CCC(=O)NCC[N+](C)(C)C)CCC4(C)C3CCC12C` (stereo not drawn) [IX, Cholesteryl-3β-Oxysuccinamidoethylenetrimethylammonium Iodide]: the “Relative CAT Activity” value with mouse L929 cells [1] is 50. Moreover, at protein kinase C (PKC), the concentration for half-maximal inhibition (IC50) worked out at 59 µM.

On to `CC(C)CCCC(C)C1CCC2C3CC=C4CC(OC(=O)CCC(=O)NCCN(C)C)CCC4(C)C3CCC12C` (stereo not drawn) [VIII, Cholesteryl-3β-oxysuccinamidoethylenedimethylamine], for which the “DNA delivery activity of mixed dispersion” value is “None of the acidic lipids, such as PS and phosphatidylglycerol (PG) showed any activity” in the data set on mouse L929 cells [2] (acidic co-lipids PS and PG); “little or no activity” in the data set with mouse L929 cells [2] (other neutral co-lipids DOPC, N-methyl-DOPE, N,N-dimethyl DOPE); “only DOPE supported the delivery activity” with mouse L929 cells [1] (co-lipid DOPE, molar ratio 1:1, L929 cells (FIG. 4)). In the data set on mouse L929 cells [1] (DOPE co-lipid, L929 cells (FIG. 5)), the “Content of cationic lipid in DOPE dispersion at maximal DNA delivery activity” value was 20-50%. Besides, the “Relative CAT Activity” value with mouse L929 cells [1] came out at 100. Further, the “Minimal ratio of co-lipid (PC or PE) to cationic lipid required to form a uniform dispersion” value in data set [3] is 1 part of PC or PE and 9 parts of compound VIII. The concentration for half-maximal inhibition (IC50) on protein kinase C (PKC) came to 191 µM.

For the compound `CC(C)CCCC(C)C1CCC2C3CC=C4CC(OC(=O)CCC(=O)OCCN(C)CCN(C)C)CCC4(C)C3CCC12C` (stereo not drawn) [XII, 2-{[2-(dimethylamino)ethyl]methylamino}ethyl-Cholesteryl-3β-Oxysuccinate], the melting point lay within 50 to 52 °C. For the same compound, in the data set with mouse L929 cells [1], the “Relative CAT Activity” value amounted to 19. The 50% inhibitory concentration (IC50) at protein kinase C (PKC) came out at 164 µM.

In the case of `CC(C)CCCC(C)C1CCC2C3CC=C4CC(OC(=O)CCC(=O)OCCN(C)CC[N+](C)(C)C)CCC4(C)C3CCC12C` (stereo not drawn) [XIII, 2-{[2-Trimethylammonio]ethylmethylamino}ethyl-Cholesteryl-3β-Oxysuccinate Iodine Salt], on protein kinase C (PKC), the IC50 was 20 µM.
